In paper PMC4878744, “Structure, Regulation, and Inhibition of the Quorum-Sensing Signal Integrator LuxO” (PLoS Biology, 2016):

Assays:
V. vulnificus LuxO-C [1] = biological target: T1, V. vulnificus LuxO-C (Vibrio vulnificus, UniProt Q8CWJ5); assay: NADH-coupled ATPase assay, fit to one-inhibitor-per-oligomer model; assay type: biochemical; design: catalytic (C) domain only, R and D domains absent; C-terminal His6 tag; expressed in E. coli BL21(DE3); hexamer 173 kDa theoretical; conditions: competitive with ATP; 100 μM LuxO-C, 2 mM ATP, pH 7.4, 23°C, 4% DMSO; K is affinity relative to ATP (dimensionless ratio)
V. vulnificus LuxO-C [2] = biological target: T1, V. vulnificus LuxO-C; conditions: pH 7.4, 23°C; turnover number versus LuxO-C concentration only in Figure 4A

T1 sequence (Q8CWJ5 132-378): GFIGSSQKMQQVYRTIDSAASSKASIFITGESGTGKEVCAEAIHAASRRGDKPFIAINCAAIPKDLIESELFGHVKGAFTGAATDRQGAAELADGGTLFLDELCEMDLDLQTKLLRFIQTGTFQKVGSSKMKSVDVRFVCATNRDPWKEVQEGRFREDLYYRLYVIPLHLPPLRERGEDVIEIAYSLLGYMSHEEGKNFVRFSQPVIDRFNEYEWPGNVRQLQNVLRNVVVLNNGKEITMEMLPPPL

| Compound | K (= Kd^ATP / Kd^AzaU) (V. vulnificus LuxO-C [1]) | NADH-coupled ATPase assay (V. vulnificus LuxO-C [2]) |
| --- | --- | --- |
| AzaU | 34 ± 2 | – |
| Nc1ncnc2c1ncn2[C@@H]1O[C@H](COP(=O)(O)OP(=O)(O)OP(=O)(O)O)[C@@H](O)[C@H]1O [ATP] | – | V. vulnificus LuxO-C |
